Source: patent publication US20250230171A1 (MOMA Therapeutics, Inc., priority 2023, published 2025)

Legend:
DLD1 BRCA2 (−/−) cells = assay: 7-day cell viability assay (CellTiter-Glo), DLD1 BRCA2 (−/−); format: cell-based, human; settings: Homo sapiens, DLD-1, 168 h, 7-day viability, n=2, read-out: Viability IC50 (uM) DLD1 BRCA2 null
Procedure, shortened: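 7-day growth assay in DLD1 cells with or without BRCA2; seeding densities chosen to keep log-linear growth. Compound: 10 uM top, 3-fold, 9 points. Endpoint: CTG ATP luminescence at RT.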

DLD1 WT cells = assay: 7-day cell viability assay (CellTiter-Glo), DLD1 parental (WT); format: cell-based, human; settings: Homo sapiens, DLD-1, 168 h, 7-day viability, n=2
[1] = target: biotinylated Avi-POLθ[2-894] (Homo sapiens (Human), UniProt O75417); assay: POLθ ATPase assay (ADP-Glo); settings: n=2; read-out: Biochemical ATPase ADPGlo IC50
Sequence of biotinylated Avi-POLθ[2-894] (O75417 2-894): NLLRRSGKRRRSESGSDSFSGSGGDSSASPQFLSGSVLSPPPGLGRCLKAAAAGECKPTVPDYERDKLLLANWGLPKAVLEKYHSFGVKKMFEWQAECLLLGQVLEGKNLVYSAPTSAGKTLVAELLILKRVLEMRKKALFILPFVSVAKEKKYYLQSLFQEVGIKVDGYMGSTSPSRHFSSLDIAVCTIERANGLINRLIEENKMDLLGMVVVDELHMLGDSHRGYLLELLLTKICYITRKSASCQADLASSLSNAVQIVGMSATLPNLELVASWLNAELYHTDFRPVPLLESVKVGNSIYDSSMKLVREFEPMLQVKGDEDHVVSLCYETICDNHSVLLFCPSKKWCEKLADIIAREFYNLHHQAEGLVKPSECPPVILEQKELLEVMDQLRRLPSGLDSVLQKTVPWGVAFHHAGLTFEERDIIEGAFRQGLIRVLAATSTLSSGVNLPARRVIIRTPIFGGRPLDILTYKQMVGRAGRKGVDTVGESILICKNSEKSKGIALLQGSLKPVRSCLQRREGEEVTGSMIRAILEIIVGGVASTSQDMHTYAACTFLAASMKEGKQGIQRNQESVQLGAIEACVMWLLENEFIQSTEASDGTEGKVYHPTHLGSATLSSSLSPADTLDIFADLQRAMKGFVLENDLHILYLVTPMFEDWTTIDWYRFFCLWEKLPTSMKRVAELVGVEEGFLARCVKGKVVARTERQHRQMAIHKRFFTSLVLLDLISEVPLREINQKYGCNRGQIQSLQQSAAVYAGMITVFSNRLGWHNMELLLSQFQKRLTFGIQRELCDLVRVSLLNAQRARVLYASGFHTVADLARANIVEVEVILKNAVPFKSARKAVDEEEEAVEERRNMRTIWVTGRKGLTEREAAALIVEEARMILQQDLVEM

Row | SMILES | IC50 (DLD1 BRCA2 (−/−) cells) [µM] | IC50 [1] [nM] | IC50 (DLD1 WT cells) [µM]
1 | COc1cnc(Cl)cc1-c1cc(C)ncc1C(=O)Nc1nc2c(s1)CN(C(=O)c1ccc(C(F)(F)F)nc1)C2 [Example 42, 2′-chloro-5′-methoxy-6-methyl-N-(5-(6-(trifluoromethyl)nicotinoyl)-5,6-dihydro-4H-pyrrolo[3,4-d]thiazol-2-yl)-[4,4′-bipyridine]-3-carboxamide] | 0.001 to 0.1 | 1 to 15 | ≥ 10
2 | COc1cnc(Cl)cc1-c1cc(C)ncc1C(=O)Nc1nc2c(s1)CN(C(=O)c1cc(C(F)(F)F)nn1C)C2 [Example 44, 2′-chloro-5′-methoxy-6-methyl-N-(5-(1-methyl-3-(trifluoromethyl)-1H-pyrazole-5-carbonyl)-5,6-dihydro-4H-pyrrolo[3,4-d]thiazol-2-yl)-[4,4′-bipyridine]-3-carboxamide] | 0.001 to 0.1 | 1 to 15 | ≥ 10
3 | COc1cnc(Cl)cc1-c1cc(C)ncc1C(=O)Nc1nc2c(s1)CN(C(=O)c1ncc(C)o1)C2 [Example 45, 2′-chloro-5′-methoxy-6-methyl-N-(5-(5-methyloxazole-2-carbonyl)-5,6-dihydro-4H-pyrrolo[3,4-d]thiazol-2-yl)-[4,4′-bipyridine]-3-carboxamide] | 0.001 to 0.1 | 1 to 15 | 2 to 5
4 | COc1cnc(Cl)cc1-c1cc(C)ncc1C(=O)Nc1nc2c(s1)CN(C(=O)c1nn(C)c3c1CCC3)C2 [Example 47, 2′-chloro-5′-methoxy-6-methyl-N-(5-(1-methyl-1,4,5,6-tetrahydrocyclopenta[c]pyrazole-3-carbonyl)-5,6-dihydro-4H-pyrrolo[3,4-d]thiazol-2-yl)-[4,4′-bipyridine]-3-carboxamide] | 0.001 to 0.1 | 1 to 15 | 5 to 10
5 | COc1cnc(Cl)cc1-c1cc(C)ncc1C(=O)Nc1nc2c(s1)CN(C(=O)[C@H]1CC[C@@H](OC)CC1)C2 [Example 48, 2′-chloro-5′-methoxy-N-(5-((1s,4s)-4-methoxycyclohexane-1-carbonyl)-5,6-dibydro-4H-pyrrolo[3,4-d]thiazol-2-yl)-6-methyl-[4,4′-bipyridine]-3-carboxamide] | 0.001 to 0.1 | 1 to 15 | ≥ 10
6 | COc1cnc(Cl)cc1-c1cc(C)ncc1C(=O)Nc1nc2c(s1)CN(C(=O)c1cc(C)nn1C)C2 [Example 49, 2′-chloro-N-(5-(1,3-dimethyl-1H-pyrazole-5-carbonyl)-5,6-dihydro-4H-pyrrolo[3,4-d]thiazol-2-yl)-5′-methoxy-6-methyl-[4,4′-bipyridine]-3-carboxamide] | 0.001 to 0.1 | 1 to 15 | ≥ 10
7 | COc1cnc(Cl)cc1-c1cc(C)ncc1C(=O)Nc1nc2c(s1)CN(C(=O)c1cc(C)n(C(F)F)n1)C2 [Example 52, 2′-chloro-N-(5-(1-(difluoromethyl)-5-methyl-1H-pyrazole-3-carbonyl)-5,6-dihydro-4H-pyrrolo[3,4-d]thiazol-2-yl)-5′-methoxy-6-methyl-[4,4′-bipyridine]-3-carboxamide] | 0.001 to 0.1 | 1 to 15 | ≥ 10
8 | CCc1cc(C(=O)N2Cc3nc(NC(=O)c4cnc(C)cc4-c4cc(Cl)ncc4OC)sc3C2)n(C)n1 [Example 57, 2′-chloro-N-(5-(3-ethyl-1-methyl-1H-pyrazole-5-carbonyl)-5,6-dihydro-4H-pyrrolo[3,4-d]thiazol-2-yl)-5′-methoxy-6-methyl-[4,4′-bipyridine]-3-carboxamide] | 0.001 to 0.1 | 1 to 15 | ≥ 10
9 | CCc1cc(C(=O)N2Cc3nc(NC(=O)c4cnc(C)cc4-c4cc(Cl)ncc4OC)sc3C2)nn1C [Example 58, 2′-chloro-N-(5-(5-ethyl-1-methyl-1H-pyrazole-3-carbonyl)-5,6-dihydro-4H-pyrrolo[3,4-d]thiazol-2-yl)-5′-methoxy-6-methyl-[4,4′-bipyridine]-3-carboxamide] | 0.001 to 0.1 | 1 to 15 | ≥ 10
10 | COc1cnc(Cl)cc1-c1cc(C)ncc1C(=O)Nc1nc2c(s1)CN(C(=O)c1cc3n(n1)CCC3)C2 [Example 63, 2′-chloro-N-(5-(5,6-dihydro-4H-pyrrolo[1,2-b]pyrazole-2-carbonyl)-5,6-dihydro-4H-pyrrolo[3,4-d]thiazol-2-yl)-5′-methoxy-6-methyl-[4,4′-bipyridine]-3-carboxamide] | 0.001 to 0.1 | 1 to 15 | 5 to 10
11 | COc1cnc(Cl)cc1-c1cc(C)ncc1C(=O)Nc1nc2c(s1)CN(C(=O)C1CC3(C1)CC(F)(F)C3)C2 [Example 64, 2′-chloro-N-(5-(6,6-difluorospiro[3.3]heptane-2-carbonyl)-5,6-dihydro-4H-pyrrolo[3,4-d]thiazol-2-yl)-5′-methoxy-6-methyl-[4,4′-bipyridine]-3-carboxamide] | 0.001 to 0.1 | 1 to 15 | 5 to 10
12 | COc1cnc(Cl)cc1-c1cc(C)ncc1C(=O)Nc1nc2c(s1)CN(C(=O)c1nn(C)c(C)c1F)C2 [Example 66] | 0.001 to 0.1 | 1 to 15 | 5 to 10
13 | COc1cnc(Cl)cc1-c1cc(C)ncc1C(=O)Nc1nc2c(s1)CN(C(=O)c1nc(C)co1)C2 [Example 67, 2′-chloro-5′-methoxy-6-methyl-N-(5-(4-methyloxazole-2-carbonyl)-5,6-dihydro-4H-pyrrolo[3,4-d]thiazol-2-yl)-[4,4′-bipyridine]-3-carboxamide] | 0.001 to 0.1 | 1 to 15 | 0.5 to 2
14 | COc1cnc(Cl)cc1-c1cc(C)ncc1C(=O)Nc1nc2c(s1)CN(C(=O)c1cc(Cl)n(C)n1)C2 [Example 73, 2′-chloro-N-(5-(5-chloro-1-methyl-1H-pyrazole-3-carbonyl)-5,6-dihydro-4H-pyrrolo[3,4-d]thiazol-2-yl)-5′-methoxy-6-methyl-[4,4′-bipyridine]-3-carboxamide] | 0.001 to 0.1 | 1 to 15 | 0.001 to 0.5
15 | COc1cnc(Cl)cc1-c1cc(C)ncc1C(=O)Nc1nc2c(s1)CN(C(=O)c1nn(C)c(C)c1Cl)C2 [Example 74, 2′-chloro-N-(5-(4-chloro-1,5-dimethyl-1H-pyrazole-3-carbonyl)-5,6-dihydro-4H-pyrrolo[3,4-d]thiazol-2-yl)-5′-methoxy-6-methyl-[4,4′-bipyridine]-3-carboxamide] | 0.001 to 0.1 | 1 to 15 | 0.001 to 0.5

The next lines start with results.

Row | IC50 (DLD1 BRCA2 (−/−) cells) [µM] | IC50 [1] [nM] | SMILES | IC50 (DLD1 WT cells) [µM]
16 | 0.001 to 0.1 | 1 to 15 | COc1cnc(Cl)cc1-c1cc(C)ncc1C(=O)Nc1nc2c(s1)CN(C(=O)c1cc(Cl)ccn1)C2 [Example 78, 2′-chloro-N-(5-(4-chloropicolinoyl)-5,6-dihydro-4H-pyrrolo[3,4-d]thiazol-2-yl)-5′-methoxy-6-methyl-[4,4′-bipyridine]-3-carboxamide] | 5 to 10
17 | 0.001 to 0.1 | 1 to 15 | COc1cnc(C(=O)N2Cc3nc(NC(=O)c4cnc(C)cc4-c4cc(Cl)ncc4OC)sc3C2)o1 [Example 79, 2′-chloro-5′-methoxy-N-(5-(5-methoxyoxazole-2-carbonyl)-5,6-dihydro-4H-pyrrolo[3,4-d]thiazol-2-yl)-6-methyl-[4,4′-bipyridine]-3-carboxamide] | 0.5 to 2
18 | 0.001 to 0.1 | 1 to 15 | COc1cnc(Cl)cc1-c1cc(C)ncc1C(=O)Nc1nc2c(s1)CN(C(=O)c1c(C)cnn1C)C2 [Example 81, 2′-chloro-N-(5-(1,4-dimethyl-1H-pyrazole-5-carbonyl)-5,6-dihydro-4H-pyrrolo[3,4-d]thiazol-2-yl)-5′-methoxy-6-methyl-[4,4′-bipyridine]-3-carboxamide] | ≥ 10
19 | 0.001 to 0.1 | 1 to 15 | COc1cnc(Cl)cc1-c1cc(C)ncc1C(=O)Nc1nc2c(s1)CN(C(=O)c1cnn(C)c1C(F)(F)F)C2 [Example 84, 2′-chloro-5′-methoxy-6-methyl-N-(5-(1-methyl-5-(trifluoromethyl)-1H-pyrazole-4-carbonyl)-5,6-dihydro-4H-pyrrolo[3,4-d]thiazol-2-yl)-[4,4′-bipyridine]-3-carboxamide] | ≥ 10
20 | 0.001 to 0.1 | 1 to 15 | COc1cnc(Cl)cc1-c1cc(C)ncc1C(=O)Nc1nc2c(s1)CN(C(=O)c1c(C(F)F)nn(C)c1Cl)C2 [Example 89, 2′-chloro-N-(5-(5-chloro-3-(difluoromethyl)-1-methyl-1H-pyrazole-4-carbonyl)-5,6-dihydro-4H-pyrrolo[3,4-d]thiazol-2-yl)-5′-methoxy-6-methyl-[4,4′-bipyridine]-3-carboxamide] | ≥ 10
21 | 0.001 to 0.1 | 1 to 15 | COc1cc(C(=O)N2Cc3nc(NC(=O)c4cnc(C)cc4-c4cc(Cl)ncc4OC)sc3C2)n(C)n1 [Example 90, 2′-chloro-5′-methoxy-N-(5-(3-methoxy-1-methyl-1H-pyrazole-5-carbonyl)-5,6-dihydro-4H-pyrrolo[3,4-d]thiazol-2-yl)-6-methyl-[4,4′-bipyridine]-3-carboxamide] | ≥ 10
22 | 0.001 to 0.1 | 1 to 15 | COc1cnc(Cl)cc1-c1cc(C)ncc1C(=O)Nc1nc2c(s1)CN(C(=O)c1ccc(OC(F)F)cn1)C2 [Example 93, 2′-chloro-N-(5-(5-(difluoromethoxy)picolinoyl)-5,6-dihydro-4H-pyrrolo[3,4-d]thiazol-2-yl)-5′-methoxy-6-methyl-[4,4′-bipyridine]-3-carboxamide] | 0.001 to 0.5
23 | 0.001 to 0.1 | 1 to 15 | COc1cnc(Cl)cc1-c1cc(C)ncc1C(=O)Nc1nc2c(s1)CN(C(=O)c1cc(C(F)F)ccn1)C2 [Example 94, 2′-chloro-N-(5-(4-(difluoromethyl)picolinoyl)-5,6-dihydro-4H-pyrrolo[3,4-d]thiazol-2-yl)-5′-methoxy-6-methyl-[4,4′-bipyridine]-3-carboxamide] | ≥ 10
